Source: US8192962B2, “Processes for detecting toxic substances” (Daikin Industries, Ltd., priority 2001, dated 2012)

Tested on: Mitochondria-located protein genes
Experiment: DNA chip mRNA expression in yeast, mitochondria-located protein genes (Table 2)
Format: cell-based, Saccharomyces cerevisiae S288C
Settings: cells incubated two hours with the chemical substance
Description: Yeast (Saccharomyces cerevisiae S288C (α SUC2mal mel gap2 CUP1)) were incubated at 25° C. on YPD medium (yeast extract 1%, polypepton 2%, glucose 2%). One of toxic chemical substances was added to the cells at logarithmic growth phase, and the cells were further incubated for two hours. Cells were cultured without any chemical substance in the same condition, and were used as control. Concentrations of the chemical substances were defined to inhibit the growth of the yeast but not lead to death.
After completion of the incubation, the culture was centrifuged to collect the cells. To the cells, sodium acetate buffer (50 mM sodium acetate, 10 mM EDTA, 1% SDS) was added, and the mixture was shaken at 65° C. for five minutes, followed by returning to room temperature, and obtaining the supernatant, of which the procedures were repeated two times. To the supernatant, ½ amount of a solution of phenol/chloroform was added, and the mixture was centrifuged to give a supernatant, which was added with an equal amount of chloroform, and the mixture was centrifuged to give a supernatant. To the supernatant, an equal amount of isopropanol containing 0.3 M sodium acetate was added, and the mixture was allowed to stand at room temperature for 30 minutes, after which the mixture was centrifuged to give a sediment of the whole RNAs. Seventy % ethanol was added to the sediment, and the mixture was again centrifuged to give a sediment, which was then dried and dissolved in water. mRNA was isolated from the whole RNAs as followings. In view of the fact that a poly A chain is attached to the 3′ terminus of mRNA, a polynucleotide having a poly T structure which was immobilized on the surface of latex beads was used to trap the mRNA, and then the mRNA was washed and eluted with spine column (Oligotex-dT30<Super>mRNA Purification Kit, Takara). Reverse transcription of the mRNA was conducted with a reverse transcriptase (Super Script II Reverse Transcriptase; catalogue No. 18064-014, GibcoBRL) using fluorescence-labeled nucleotides to give cDNAs that were introduced with Cy3-dUTP or Cy5-dUTP during the reverse transcription.
The labeled cDNAs were dissolved in TE buffer (10mM Tris-HCl/1 mM EDTA, pH8.0), and the solution was dropped on the DNA chip containing the whole genes of yeast (DNA Chip Research Inc. Japan) so that the cDNAs were hybridized on the DNA chip at 65° C. for over 12 hours. The fluoresces intensity of the DNA chip was read with a scanner, and the ratio relative to the fluorescence intensity resulting from the absence of chemical substance was estimated as the following, which is shown in Tables 1 to 9: […]

## O=[N+]([O-])c1cc[n+]([O-])c2ccccc12 [(5), 4-nitroquinolin-N-oxide]
Yeast gene YAL039C
  The level of expressed mRNA in the presence of chemical substance/The level of expressed mRNA in the absence of chemical substance: 1.1
Yeast gene YBL022C
  The level of expressed mRNA in the presence of chemical substance/The level of expressed mRNA in the absence of chemical substance: 1.2
Yeast gene YBL030C
  The level of expressed mRNA in the presence of chemical substance/The level of expressed mRNA in the absence of chemical substance: 0.7
Yeast gene YBL038W
  The level of expressed mRNA in the presence of chemical substance/The level of expressed mRNA in the absence of chemical substance: 0.9
Yeast gene YBL099W
  The level of expressed mRNA in the presence of chemical substance/The level of expressed mRNA in the absence of chemical substance: 1.0
Yeast gene YBR003W
  The level of expressed mRNA in the presence of chemical substance/The level of expressed mRNA in the absence of chemical substance: 0.7
Yeast gene YBR044C
  The level of expressed mRNA in the presence of chemical substance/The level of expressed mRNA in the absence of chemical substance: 1.4
Yeast gene YBR091C
  The level of expressed mRNA in the presence of chemical substance/The level of expressed mRNA in the absence of chemical substance: 1.1
Yeast gene YBR122C
  The level of expressed mRNA in the presence of chemical substance/The level of expressed mRNA in the absence of chemical substance: 1.5
Yeast gene YBR185C
  The level of expressed mRNA in the presence of chemical substance/The level of expressed mRNA in the absence of chemical substance: 0.8
Yeast gene YBR221C
  The level of expressed mRNA in the presence of chemical substance/The level of expressed mRNA in the absence of chemical substance: 1.3
Yeast gene YBR251W
  The level of expressed mRNA in the presence of chemical substance/The level of expressed mRNA in the absence of chemical substance: 1.3
Yeast gene YBR282W
  The level of expressed mRNA in the presence of chemical substance/The level of expressed mRNA in the absence of chemical substance: 1.0
Yeast gene YCL057W
  The level of expressed mRNA in the presence of chemical substance/The level of expressed mRNA in the absence of chemical substance: 1.1
Yeast gene YCR046C
  The level of expressed mRNA in the presence of chemical substance/The level of expressed mRNA in the absence of chemical substance: 1.0
Yeast gene YCR083W
  The level of expressed mRNA in the presence of chemical substance/The level of expressed mRNA in the absence of chemical substance: 1.6
Yeast gene YDL067C
  The level of expressed mRNA in the presence of chemical substance/The level of expressed mRNA in the absence of chemical substance: 2.0
Yeast gene YDL181W
  The level of expressed mRNA in the presence of chemical substance/The level of expressed mRNA in the absence of chemical substance: 1.7
Yeast gene YDL198C
  The level of expressed mRNA in the presence of chemical substance/The level of expressed mRNA in the absence of chemical substance: 0.7
Yeast gene YDR079W
  The level of expressed mRNA in the presence of chemical substance/The level of expressed mRNA in the absence of chemical substance: 1.2
Yeast gene YDR178W
  The level of expressed mRNA in the presence of chemical substance/The level of expressed mRNA in the absence of chemical substance: 0.9
Yeast gene YDR231C
  The level of expressed mRNA in the presence of chemical substance/The level of expressed mRNA in the absence of chemical substance: 1.1
Yeast gene YDR258C
  The level of expressed mRNA in the presence of chemical substance/The level of expressed mRNA in the absence of chemical substance: 1.3
Yeast gene YDR298C
  The level of expressed mRNA in the presence of chemical substance/The level of expressed mRNA in the absence of chemical substance: 1.3
Yeast gene YDR347W
  The level of expressed mRNA in the presence of chemical substance/The level of expressed mRNA in the absence of chemical substance: 0.8
Yeast gene YDR377W
  The level of expressed mRNA in the presence of chemical substance/The level of expressed mRNA in the absence of chemical substance: 1.9
Yeast gene YDR529C
  The level of expressed mRNA in the presence of chemical substance/The level of expressed mRNA in the absence of chemical substance: 1.2
Yeast gene YEL024W
  The level of expressed mRNA in the presence of chemical substance/The level of expressed mRNA in the absence of chemical substance: 1.3
Yeast gene YEL039C
  The level of expressed mRNA in the presence of chemical substance/The level of expressed mRNA in the absence of chemical substance: 0.9
Yeast gene YER178W
  The level of expressed mRNA in the presence of chemical substance/The level of expressed mRNA in the absence of chemical substance: 0.7
Yeast gene YFL016C
  The level of expressed mRNA in the presence of chemical substance/The level of expressed mRNA in the absence of chemical substance: 1.3
Yeast gene YGL018C
  The level of expressed mRNA in the presence of chemical substance/The level of expressed mRNA in the absence of chemical substance: 1.1
Yeast gene YGL187C
  The level of expressed mRNA in the presence of chemical substance/The level of expressed mRNA in the absence of chemical substance: 1.3
Yeast gene YGL191W
  The level of expressed mRNA in the presence of chemical substance/The level of expressed mRNA in the absence of chemical substance: 0.9
Yeast gene YGR008C
  The level of expressed mRNA in the presence of chemical substance/The level of expressed mRNA in the absence of chemical substance: 0.9
Yeast gene YGR028W
  The level of expressed mRNA in the presence of chemical substance/The level of expressed mRNA in the absence of chemical substance: 0.9
Yeast gene YGR062C
  The level of expressed mRNA in the presence of chemical substance/The level of expressed mRNA in the absence of chemical substance: 0.7
Yeast gene YGR076C
  The level of expressed mRNA in the presence of chemical substance/The level of expressed mRNA in the absence of chemical substance: 0.9
Yeast gene YGR082W
  The level of expressed mRNA in the presence of chemical substance/The level of expressed mRNA in the absence of chemical substance: 0.9
Yeast gene YGR174C
  The level of expressed mRNA in the presence of chemical substance/The level of expressed mRNA in the absence of chemical substance: 1.0
Yeast gene YGR244C
  The level of expressed mRNA in the presence of chemical substance/The level of expressed mRNA in the absence of chemical substance: 0.8
Yeast gene YHR008C
  The level of expressed mRNA in the presence of chemical substance/The level of expressed mRNA in the absence of chemical substance: 0.6
Yeast gene YIL155C
  The level of expressed mRNA in the presence of chemical substance/The level of expressed mRNA in the absence of chemical substance: 1.3
Yeast gene YJL096W
  The level of expressed mRNA in the presence of chemical substance/The level of expressed mRNA in the absence of chemical substance: 1.9
Yeast gene YJL102W
  The level of expressed mRNA in the presence of chemical substance/The level of expressed mRNA in the absence of chemical substance: 1.3
Yeast gene YJL133W
  The level of expressed mRNA in the presence of chemical substance/The level of expressed mRNA in the absence of chemical substance: 0.9
Yeast gene YJL166W
  The level of expressed mRNA in the presence of chemical substance/The level of expressed mRNA in the absence of chemical substance: 1.6
Yeast gene YJL180C
  The level of expressed mRNA in the presence of chemical substance/The level of expressed mRNA in the absence of chemical substance: 1.5
Yeast gene YJR045C
  The level of expressed mRNA in the presence of chemical substance/The level of expressed mRNA in the absence of chemical substance: 0.5
Yeast gene YJR077C
  The level of expressed mRNA in the presence of chemical substance/The level of expressed mRNA in the absence of chemical substance: 0.9
